{
  "source": "ChEMBL document CHEMBL1145525",
  "about": "“Discovery of antiandrogen activity of nonsteroidal scaffolds of marketed drugs” (Proc Natl Acad Sci U S A, 2007)",
  "key": {"[1]": {"system": "PC-3", "experiment": "Cytotoxicity against human PC3 cells upto 10 uM by SRB assay", "format": "functional, cell-based"}, "[2]": {"system": "LNCaP", "experiment": "Increase in prostate specific antigen expression level in human LNCaP cells at 1 uM", "format": "functional, cell-based"}, "[3]": {"system": "LNCaP", "experiment": "Reduction of prostate specific antigen expression level in human LNCaP cells at 10 uM", "format": "functional", "set-up": "scale not given: the % may be the effect or the level left"}, "[4]": {"system": "HeLa", "experiment": "Effect on translocation of androgen receptor from cytoplasm to nucleus in human HeLa cells at 1 uM in presence of dihydrotestosterone", "format": "functional"}, "[5]": {"target": "D(2) dopamine receptor (Homo sapiens) (UniProt P14416)", "sequence (P14416 whole entry)": "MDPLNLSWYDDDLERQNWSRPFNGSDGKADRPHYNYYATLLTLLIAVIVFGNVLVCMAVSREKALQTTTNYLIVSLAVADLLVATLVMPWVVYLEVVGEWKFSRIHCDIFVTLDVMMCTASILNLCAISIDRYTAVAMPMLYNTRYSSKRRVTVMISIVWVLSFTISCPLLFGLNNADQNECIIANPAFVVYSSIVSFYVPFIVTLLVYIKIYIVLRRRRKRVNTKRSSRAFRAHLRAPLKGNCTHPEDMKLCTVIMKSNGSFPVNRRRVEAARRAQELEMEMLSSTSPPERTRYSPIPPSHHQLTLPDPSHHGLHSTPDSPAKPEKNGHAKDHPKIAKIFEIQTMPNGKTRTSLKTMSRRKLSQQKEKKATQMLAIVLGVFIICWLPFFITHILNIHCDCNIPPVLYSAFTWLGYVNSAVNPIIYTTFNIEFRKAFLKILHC", "experiment": "Displacement of [3H]spiperone from human dopamine D2L receptor expressed in CHO FlpIn cells upto 1 uM", "format": "cell-based"}, "[6]": {"target": "5-hydroxytryptamine receptor 2A (Homo sapiens) (UniProt P28223)", "sequence (P28223 whole entry)": "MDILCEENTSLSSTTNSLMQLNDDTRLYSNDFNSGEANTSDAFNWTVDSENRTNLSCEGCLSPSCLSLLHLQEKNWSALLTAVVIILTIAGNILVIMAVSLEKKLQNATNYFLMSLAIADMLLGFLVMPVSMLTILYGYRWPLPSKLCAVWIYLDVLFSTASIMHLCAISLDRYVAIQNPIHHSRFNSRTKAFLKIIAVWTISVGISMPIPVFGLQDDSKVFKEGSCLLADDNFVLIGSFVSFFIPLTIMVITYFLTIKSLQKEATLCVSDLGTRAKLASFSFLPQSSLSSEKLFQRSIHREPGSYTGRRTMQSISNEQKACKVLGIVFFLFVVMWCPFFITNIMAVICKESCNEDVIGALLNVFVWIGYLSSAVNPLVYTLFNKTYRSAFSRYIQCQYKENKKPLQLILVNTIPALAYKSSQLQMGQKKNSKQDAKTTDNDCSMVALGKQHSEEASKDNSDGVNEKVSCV", "experiment": "Displacement of [3H]ketanserin from human dopamine 5HT2A receptor expressed in CHO-K1 cells upto 1 uM", "format": "cell-based"}, "[7]": {"target": "T1, 5-hydroxytryptamine receptor 2C (Homo sapiens) (UniProt P28335)", "T1 sequence (whole entry)": "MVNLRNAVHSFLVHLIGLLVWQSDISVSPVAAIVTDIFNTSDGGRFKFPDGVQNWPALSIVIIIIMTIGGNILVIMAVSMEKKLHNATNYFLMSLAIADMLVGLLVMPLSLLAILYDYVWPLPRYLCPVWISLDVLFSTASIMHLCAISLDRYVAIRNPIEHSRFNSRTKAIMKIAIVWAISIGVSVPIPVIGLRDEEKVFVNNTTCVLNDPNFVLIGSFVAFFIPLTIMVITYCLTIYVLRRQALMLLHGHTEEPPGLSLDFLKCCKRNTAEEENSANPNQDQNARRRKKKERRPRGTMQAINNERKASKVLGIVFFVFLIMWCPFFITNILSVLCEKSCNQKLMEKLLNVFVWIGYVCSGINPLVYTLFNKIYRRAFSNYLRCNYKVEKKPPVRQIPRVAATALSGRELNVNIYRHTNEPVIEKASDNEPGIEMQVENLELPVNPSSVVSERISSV", "experiment": "Displacement of [3H]mesulergine from human dopamine 5HT2C receptor expressed in CHO-K1 cells upto 1 uM", "format": "cell-based"}, "[8]": {"target": "T2, Androgen receptor (Homo sapiens, UniProt P10275)", "T2 sequence (P10275 whole entry)": "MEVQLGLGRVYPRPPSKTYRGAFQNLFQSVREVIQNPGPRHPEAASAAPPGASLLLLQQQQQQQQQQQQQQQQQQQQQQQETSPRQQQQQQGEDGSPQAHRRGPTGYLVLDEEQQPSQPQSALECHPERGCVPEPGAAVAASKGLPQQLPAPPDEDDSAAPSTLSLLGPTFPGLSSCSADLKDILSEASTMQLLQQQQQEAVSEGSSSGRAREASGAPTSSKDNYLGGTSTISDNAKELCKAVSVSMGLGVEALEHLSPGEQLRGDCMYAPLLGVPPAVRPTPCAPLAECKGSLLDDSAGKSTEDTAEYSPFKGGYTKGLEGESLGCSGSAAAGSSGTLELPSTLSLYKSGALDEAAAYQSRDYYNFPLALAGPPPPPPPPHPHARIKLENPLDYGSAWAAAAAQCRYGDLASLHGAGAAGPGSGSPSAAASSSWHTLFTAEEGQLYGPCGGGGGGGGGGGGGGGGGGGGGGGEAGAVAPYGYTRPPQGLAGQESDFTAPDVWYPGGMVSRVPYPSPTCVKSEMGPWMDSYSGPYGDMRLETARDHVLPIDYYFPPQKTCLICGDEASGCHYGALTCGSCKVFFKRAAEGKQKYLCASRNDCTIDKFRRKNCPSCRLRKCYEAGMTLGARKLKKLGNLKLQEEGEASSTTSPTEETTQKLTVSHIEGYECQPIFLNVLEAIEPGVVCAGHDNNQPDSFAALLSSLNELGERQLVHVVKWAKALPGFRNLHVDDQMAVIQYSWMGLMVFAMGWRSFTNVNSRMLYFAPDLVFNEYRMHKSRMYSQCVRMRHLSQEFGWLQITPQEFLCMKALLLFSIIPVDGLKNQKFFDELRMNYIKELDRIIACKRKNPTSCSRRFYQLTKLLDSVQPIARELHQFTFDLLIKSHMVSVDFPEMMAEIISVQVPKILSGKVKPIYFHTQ", "experiment": "Inhibition of wild type androgen receptor expressed in CV1 cells assessed as dihydrotestosterone-stimulated transactivation by CAT reporter gene assay", "format": "cell-based, CV-1"}, "[9]": {"target": "T3, Androgen receptor (Rattus norvegicus, UniProt P15207)", "T3 sequence (P15207 whole entry)": "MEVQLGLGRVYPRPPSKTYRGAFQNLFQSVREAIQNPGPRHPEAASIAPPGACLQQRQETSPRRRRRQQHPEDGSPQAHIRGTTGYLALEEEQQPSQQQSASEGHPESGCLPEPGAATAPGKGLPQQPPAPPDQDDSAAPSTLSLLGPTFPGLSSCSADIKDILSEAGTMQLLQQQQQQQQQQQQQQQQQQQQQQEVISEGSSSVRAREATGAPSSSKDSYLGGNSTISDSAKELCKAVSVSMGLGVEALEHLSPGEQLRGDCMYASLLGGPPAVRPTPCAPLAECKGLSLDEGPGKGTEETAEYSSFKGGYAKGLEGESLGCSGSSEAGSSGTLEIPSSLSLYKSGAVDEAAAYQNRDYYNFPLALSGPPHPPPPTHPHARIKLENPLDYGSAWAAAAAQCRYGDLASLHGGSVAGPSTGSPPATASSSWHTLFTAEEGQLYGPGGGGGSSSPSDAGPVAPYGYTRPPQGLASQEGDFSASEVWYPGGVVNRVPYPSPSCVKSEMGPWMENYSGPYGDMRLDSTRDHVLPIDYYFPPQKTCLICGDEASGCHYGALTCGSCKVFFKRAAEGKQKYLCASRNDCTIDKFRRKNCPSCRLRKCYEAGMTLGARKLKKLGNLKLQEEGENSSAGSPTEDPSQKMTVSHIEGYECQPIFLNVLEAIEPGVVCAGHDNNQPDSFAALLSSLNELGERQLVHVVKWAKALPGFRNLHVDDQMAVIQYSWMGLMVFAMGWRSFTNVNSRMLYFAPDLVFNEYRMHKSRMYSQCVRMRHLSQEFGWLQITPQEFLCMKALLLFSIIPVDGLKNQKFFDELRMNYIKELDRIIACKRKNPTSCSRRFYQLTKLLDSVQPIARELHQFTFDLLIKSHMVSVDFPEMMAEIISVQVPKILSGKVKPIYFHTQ", "experiment": "Displacement of [3H]mibolerone from rat androgen receptor"}},
  "note": "The source made the active and inactive calls. The rule behind the calls is not given here.",
  "data": [
    {"molecule": "O=C(CN1c2ccccc2Sc2ccc(C(F)(F)F)cc21)c1cccc2ccccc12", "values": [
      {"measurement": "Activity", "setting": "[1]", "value": "inactive"},
      {"measurement": "Activity", "setting": "[2]", "value": "Active"},
      {"measurement": "Activity", "setting": "[3]", "value": ">80", "unit": "%"},
      {"measurement": "Activity", "setting": "[4]", "value": ">90", "unit": "%"},
      {"measurement": "Activity", "setting": "[5]", "value": "inactive"},
      {"measurement": "Activity", "setting": "[6]", "value": "inactive"},
      {"measurement": "Activity", "setting": "[7]", "value": "inactive"},
      {"measurement": "IC50", "setting": "[8]; read-out: IC50", "value": 250, "unit": "nM"},
      {"measurement": "IC50", "setting": "[8]; read-out: Log IC50 (converted)", "value": 251, "unit": "nM"}
    ]},
    {"molecule": "N#Cc1ccc2c(c1)N(CCCN1CCC(O)CC1)c1ccccc1S2", "note": "[PERICIAZINE]", "values": [
      {"measurement": "Ki", "setting": "[9]", "value": 3000, "unit": "nM"}
    ]}
  ]
}
